The subject of one series is HUVEC cells. Description: VEGF-derived ROS scavenging ability (DCF-DA fluorescence). Particulars: HUVEC pretreated 3 hours, then VEGF 15 minutes, compared to VEGF, FIG. 5. It is filed as cell-based. As for the experimental part: (§1) DCF-DA (2′,7′-dichlorofluorescein diacetate) was used to measure a VEGF-derived ROS scavenging ability in HUVEC cells. When ROS exists in cells, DCF-DA is oxidized into fluorescent DCF, thereby emitting green fluorescent light. 1×10^5 concentration of HUVEC was spread onto a 0.2% gelatin coated 8-well plate, and then incubated for 24 hours. The cells were pretreated with Compounds 6a or 6i for 3 hours and then, treated with VEGF for 15 minutes, and then, washed three times with PBS (pH 7.4), and then, 10 μM of DCF-DA was added to EBM-2 medium, which was then placed in dark condition for 30 minutes. Then, the cells were washed three times with PBS, and a degree of intracellular fluorescence was measured by using a fluorescent microscope.

The test system of another series is A549 lung cancer cells. Description: Oncogenesis-derived angiogenesis and tumor growth on CAM inoculated with A549 lung cancer cells. It is filed as in vivo, chick. Particulars: A549 cells 1.5×10^6 cell/CAM, various concentrations, five days after inoculation; FIG. 4. How it is done:
Hen's fertile eggs were incubated, and on the 9th day, a window was formed in the same manner as in Experimental Example 1, and instead of a disc, A549 lung cancer cells were mixed with matrigel at a ratio of 1:1, and then the cells were treated with Compounds 6a and 6i and inoculated at a concentration of 1.5×10^6 cell/CAM. Five days after the inoculation, the CAM site where tumors developed was separated and washed with a phosphate buffer solution, and then, an image thereof was obtained by using a stereomicroscope (Stemi SV6 stereomicroscope, Carl Zeiss, Germany) and Image-Pro Plus software (Media Cybernetics; Silver Spring, Md., U.S.A.) to count the number of blood vessel branches, and the results were assayed.

The subject of a further series is Male Balb/c mice. Description: Toxicity test, single oral administration. It is filed as in vivo. Particulars: once, 0.5 g/kg, 1 g/kg and 2 g/kg in 0.5% methylcellose, 7 days. As for the experimental part: Male Balb/c mice were orally administered once with Compound 6a suspended in a 0.5% methylcellose solution, in a dosage of each of 0.5 g/kg, 1 g/kg, and 2 g/kg, and then, for 7 days, the survival rate and body weight of the mice were measured.
After the administration, the death, clinical symptoms, and body weight change of the mice were analyzed, and a hematological examination and a blood biochemical examination were performed. Then, the autopsy of the mice was performed, and abnormality of abdominal cavity organs and thoracic cavity organs was examined.

The subject of series [1] is ARPE-19 (adult retinal pigment epithelium-19) cell line. The experiment in a line: Macular degeneration risk factor-derived ROS scavenging ability. The class given is cell-based. To be noted: compared to a control. As for the experimental part:
as §1
The same experiment as used in Experimental Example 3 was performed, except that ARPE-19 (adult retinal pigment epithelium-19) cell line was treated with 4-hydroxynonenal (4-HNE) or angiotensin II (Ang II), which are macular degeneration risk factors, to identify ROS scavenging ability of Compound 6a.

For series [2], the system named is chorioallantoic membrane (CAM). The experiment in a line: Chorioallantoic membrane (CAM) assay, VEGF-derived angiogenesis. The class given is in vivo, chick. How it is done: To examine angiogenesis inhibiting effects in vivo, CAM assay was performed (Nguyen Metal., Microvascular Res., 47, pp 31-40, 1994). Hen's fertile eggs were incubated at a temperature of 37° C. and in relative humidity 55%, and on the 10th day after the incubation, an air sac site was punched by using a hypodermic needle (Greencross Medical Science Corp, Korea) to form a first hole, and then, a planar site of the fertile egg where a window was to be formed was punched to form a second hole. Air was removed through the first pore of the air sac site to allow the chorioallantoic membrane (CAM) to be separated from the shell of the fertile egg, and this site was cut by using a grinding wheel (Multipro 395JA, Dremel, Mexico) to form a window. […] Through the window, the filter disc was placed on blood vessels, which were then treated with the compounds each dissolved in dimethylsulfoxide (DMSO) and diluted with phosphate buffer solution (PBS) at various concentrations. 3 days after the treatment with the compounds, the CAM site with the filter disc placed thereon was separated, and then washed with a phosphate buffer solution, and an image thereof was obtained by using a stereomicroscope (Stemi SV6 stereomicroscope, Carl Zeiss, Germany) and image-Pro Plus software (Media Cybernetics; Silver Spring, Md., U.S.A.) to count the number of blood vessel branches, and the obtained results were assayed.

Each structure is given as a SMILES string.

On to `Cc1nc(N)c(C)c(C)c1O` [Compound 6a, 6-amino-2,4,5-trimethylpyridin-3-ol], for which, in the series on HUVEC cells, the “degree of intracellular fluorescence (VEGF-derived ROS)” value is “substantial decrease”. In the series on A549 lung cancer cells, the oncogenesis-derived angiogenesis entry is given as “inhibited” and the tumor growth result was “inhibited”. In the series on Male Balb/c mice, the “body weight change, blood examination, blood biochemical examination, and autopsy results” value was “no toxicity change”; the clinical symptoms result is given as “did not have distinguishing clinical symptoms”; the death entry was “did not die”. Further, in series [1] (ARPE-19 treated with 4-HNE, FIG. 7), the “degree of intracellular fluorescence (ROS), 4-hydroxynonenal (4-HNE)” value was “substantially decreased”. Besides, in series [1] (ARPE-19 treated with Ang II, FIG. 6), the “degree of intracellular fluorescence (ROS), angiotensin II (Ang II)” value is given as “substantially decreased”. Also, the inhibition in vivo at 0.1 µM in series [2] (Gallus gallus, 72 h, VEGF (50 ng/CAM) + 0.15 ng/CAM, 0.1 μM, 3 days after treatment, read-out: Inhibition ratio) amounted to 64 ± 8.8%. Further, the inhibition in vivo at 1 µM in series [2] (Gallus gallus, 72 h, VEGF (50 ng/CAM) + 1.5 ng/CAM, 1 μM, 3 days after treatment, read-out: Inhibition ratio) is 76.3 ± 5.2%. In addition, the IC50 in series [2] (Gallus gallus, CAM treated with various concentrations, FIG. 3, read-out: IC50 with respect to angiogenesis inhibition) came out at 2 nM. In addition, in series [2] (VEGF (50 ng/CAM) + 0.15 ng/CAM, 0.1 μM, 3 days after treatment), the “Number of blood vessel branches/main blood vessel” value was 28 ± 3.3^8. The “Number of blood vessel branches/main blood vessel” value in series [2] (VEGF (50 ng/CAM) + 1.5 ng/CAM, 1 μM, 3 days after treatment) is on record as 23.3 ± 2.0^8. For the same compound, in series [2] (VEGF-treated CAM, summary of Table 1, 6a compared with SU4312, batimastat and α-tocopherol), the angiogenesis inhibiting effects entry was “excellent angiogenesis inhibiting effects even at low concentration”.

What is called IC50 is the point on the concentration scale where inhibition reaches its midpoint.

The values above are taken from patent US9452159B2, “6-aminopyridine-3-ol derivatives or pharmaceutically acceptable salts thereof, and pharmaceutical composition containing same as active ingredients for preventing or treating diseases caused by angiogenesis” (Research Cooperation Foundation of Yeungnam University, priority 2011, dated 2016).
